From paper PMC9841527 (Journal of Medicinal Chemistry, 2022)

What was measured:
[1] = biological target: MettL5-Trm112 (Homo sapiens, UniProt Q9NRN9); format: biochemical
[2] = biological target: PRMT1 (Homo sapiens, UniProt Q99873); test: Selectivity assay, PRMT1; format: biochemical; settings: compound 10 μM, 3H-SAM 1 μM
[3] = biological target: T1, CamA (Clostridioides difficile, UniProt Q183J3); test: Isothermal titration calorimetry; format: binding; settings: from that of compound 37
T1 sequence (Q183J3 1-577): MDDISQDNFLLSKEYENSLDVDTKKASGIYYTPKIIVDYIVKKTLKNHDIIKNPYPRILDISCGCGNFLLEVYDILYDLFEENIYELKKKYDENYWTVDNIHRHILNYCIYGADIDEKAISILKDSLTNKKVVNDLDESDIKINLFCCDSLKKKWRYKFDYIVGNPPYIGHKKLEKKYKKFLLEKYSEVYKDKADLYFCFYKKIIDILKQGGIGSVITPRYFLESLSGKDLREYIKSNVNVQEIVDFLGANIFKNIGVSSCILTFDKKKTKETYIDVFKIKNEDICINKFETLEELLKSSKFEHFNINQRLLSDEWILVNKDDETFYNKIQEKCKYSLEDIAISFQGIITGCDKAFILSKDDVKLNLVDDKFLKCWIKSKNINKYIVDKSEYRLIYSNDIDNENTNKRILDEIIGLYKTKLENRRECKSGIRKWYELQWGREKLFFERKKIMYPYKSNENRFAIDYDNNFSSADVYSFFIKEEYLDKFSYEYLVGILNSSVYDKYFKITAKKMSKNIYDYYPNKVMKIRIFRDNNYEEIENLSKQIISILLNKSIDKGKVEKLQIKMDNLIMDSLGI

[4] = biological target: DOT1L (Homo sapiens, UniProt Q8TEK3); test: Selectivity assay, DOT1L; format: biochemical; settings: compound 10 μM, 3H-SAM 1 μM
[5] = biological target: MettL3-MettL14 (Homo sapiens, UniProt Q86U44); test: Selectivity assay, MettL3-MettL14; format: biochemical; settings: [I] = 10 μM, [SAM] = 20 μM, 5 mM NaCl, or CamA conditions
[6] = biological target: T2, MettL16 (Homo sapiens, UniProt Q86W50); test: Selectivity assay, MettL16; format: biochemical; settings: [I] = 10 μM, [SAM] = 160 μM or 30 μM
T2 sequence (Q86W50 1-562): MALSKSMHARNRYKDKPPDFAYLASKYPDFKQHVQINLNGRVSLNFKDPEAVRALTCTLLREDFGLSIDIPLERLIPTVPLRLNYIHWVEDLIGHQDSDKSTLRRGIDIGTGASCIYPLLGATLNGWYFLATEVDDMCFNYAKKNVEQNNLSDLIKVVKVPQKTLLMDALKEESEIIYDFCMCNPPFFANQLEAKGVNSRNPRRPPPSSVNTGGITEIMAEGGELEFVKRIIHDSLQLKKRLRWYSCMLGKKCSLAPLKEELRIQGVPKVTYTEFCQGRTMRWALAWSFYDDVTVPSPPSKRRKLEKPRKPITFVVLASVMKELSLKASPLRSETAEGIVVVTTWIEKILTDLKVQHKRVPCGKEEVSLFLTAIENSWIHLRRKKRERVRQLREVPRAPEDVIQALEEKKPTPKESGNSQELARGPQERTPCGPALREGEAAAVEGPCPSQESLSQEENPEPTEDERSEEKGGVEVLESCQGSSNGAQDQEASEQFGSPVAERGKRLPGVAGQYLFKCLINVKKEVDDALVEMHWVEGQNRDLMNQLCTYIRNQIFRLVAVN

[7] = biological target: DNMT1 (Homo sapiens, UniProt P26358); test: Selectivity assay, DNMT1; format: biochemical; settings: [I] = 10 μM, [SAM] = 5.5 μM, 37 °C
Chain of DNMT1 (P26358 351-1600): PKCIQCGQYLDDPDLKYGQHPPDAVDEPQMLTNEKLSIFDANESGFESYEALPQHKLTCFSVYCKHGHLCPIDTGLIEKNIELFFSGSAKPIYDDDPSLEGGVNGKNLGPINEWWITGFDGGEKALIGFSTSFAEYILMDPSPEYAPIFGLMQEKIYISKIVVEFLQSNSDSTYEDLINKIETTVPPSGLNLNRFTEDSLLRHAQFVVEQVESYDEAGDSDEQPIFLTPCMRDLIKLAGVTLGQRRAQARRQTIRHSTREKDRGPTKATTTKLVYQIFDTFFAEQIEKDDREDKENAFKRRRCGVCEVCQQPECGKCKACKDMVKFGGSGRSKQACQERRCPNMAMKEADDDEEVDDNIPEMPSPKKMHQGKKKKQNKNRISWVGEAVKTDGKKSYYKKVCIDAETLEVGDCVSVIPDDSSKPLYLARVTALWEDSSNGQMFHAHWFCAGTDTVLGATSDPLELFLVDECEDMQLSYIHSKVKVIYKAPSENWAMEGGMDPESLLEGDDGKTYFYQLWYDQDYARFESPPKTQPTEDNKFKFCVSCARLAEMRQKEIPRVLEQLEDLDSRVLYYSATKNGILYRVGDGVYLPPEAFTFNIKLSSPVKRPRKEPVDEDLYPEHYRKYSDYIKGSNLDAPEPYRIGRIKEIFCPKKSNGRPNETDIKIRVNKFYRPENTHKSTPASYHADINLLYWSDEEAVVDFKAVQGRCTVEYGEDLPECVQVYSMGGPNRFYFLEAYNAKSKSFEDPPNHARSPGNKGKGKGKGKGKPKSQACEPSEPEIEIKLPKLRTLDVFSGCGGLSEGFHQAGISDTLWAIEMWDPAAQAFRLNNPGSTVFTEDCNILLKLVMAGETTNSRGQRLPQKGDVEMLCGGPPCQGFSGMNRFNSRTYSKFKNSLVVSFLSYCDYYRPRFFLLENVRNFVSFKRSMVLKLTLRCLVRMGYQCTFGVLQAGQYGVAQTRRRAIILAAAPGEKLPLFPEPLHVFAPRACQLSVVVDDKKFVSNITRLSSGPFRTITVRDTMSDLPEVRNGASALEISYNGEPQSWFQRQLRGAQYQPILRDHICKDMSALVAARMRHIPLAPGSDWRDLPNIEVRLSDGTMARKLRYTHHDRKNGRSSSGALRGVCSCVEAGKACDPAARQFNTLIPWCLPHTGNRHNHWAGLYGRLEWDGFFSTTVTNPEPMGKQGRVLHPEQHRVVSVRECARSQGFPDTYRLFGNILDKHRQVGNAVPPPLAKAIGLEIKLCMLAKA

[8] = biological target: Dnmt3a-Dnmt3L (Mus musculus, UniProt O88508); format: biochemical
[9] = biological target: PCIF1 (Homo sapiens, UniProt Q9H4Z3); format: biochemical
[10] = biological target: T3, G9a (Homo sapiens, UniProt Q96KQ7); test: Selectivity assay, G9a; format: biochemical; settings: compound 10 μM, 3H-SAM 1 μM
T3 sequence (Q96KQ7 1-1210): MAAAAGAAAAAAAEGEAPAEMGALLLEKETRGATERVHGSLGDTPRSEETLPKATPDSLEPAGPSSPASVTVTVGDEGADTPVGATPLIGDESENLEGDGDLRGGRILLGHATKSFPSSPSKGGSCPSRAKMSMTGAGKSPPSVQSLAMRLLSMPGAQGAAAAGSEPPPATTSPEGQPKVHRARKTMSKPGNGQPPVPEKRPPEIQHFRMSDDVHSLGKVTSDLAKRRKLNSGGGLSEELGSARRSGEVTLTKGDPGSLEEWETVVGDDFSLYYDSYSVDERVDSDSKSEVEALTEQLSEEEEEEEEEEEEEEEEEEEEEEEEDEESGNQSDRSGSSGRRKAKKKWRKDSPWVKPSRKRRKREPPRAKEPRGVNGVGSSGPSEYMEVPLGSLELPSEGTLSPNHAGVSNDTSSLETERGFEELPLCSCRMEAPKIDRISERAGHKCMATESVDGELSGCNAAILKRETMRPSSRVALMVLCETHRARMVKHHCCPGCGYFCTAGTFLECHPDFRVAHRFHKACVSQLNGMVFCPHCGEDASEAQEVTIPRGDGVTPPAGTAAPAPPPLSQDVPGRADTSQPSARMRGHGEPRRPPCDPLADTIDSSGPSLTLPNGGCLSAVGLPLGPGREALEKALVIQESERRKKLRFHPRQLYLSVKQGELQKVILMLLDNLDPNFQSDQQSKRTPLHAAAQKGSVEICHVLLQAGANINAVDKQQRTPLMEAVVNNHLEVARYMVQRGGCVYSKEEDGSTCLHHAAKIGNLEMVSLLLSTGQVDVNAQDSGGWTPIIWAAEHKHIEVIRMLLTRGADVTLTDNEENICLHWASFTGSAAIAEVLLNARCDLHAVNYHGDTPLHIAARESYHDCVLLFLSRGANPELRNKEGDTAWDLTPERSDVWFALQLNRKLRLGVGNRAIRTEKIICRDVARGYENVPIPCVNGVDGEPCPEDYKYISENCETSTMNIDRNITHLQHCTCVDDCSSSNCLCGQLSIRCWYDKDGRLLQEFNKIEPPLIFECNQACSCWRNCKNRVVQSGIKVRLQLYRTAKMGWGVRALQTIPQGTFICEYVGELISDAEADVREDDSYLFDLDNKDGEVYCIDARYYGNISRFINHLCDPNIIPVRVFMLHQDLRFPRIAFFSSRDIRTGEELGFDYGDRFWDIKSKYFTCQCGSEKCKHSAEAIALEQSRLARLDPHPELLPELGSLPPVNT

[11] = biological target: CcrM (Caulobacter vibrioides, UniProt P0CAW2); format: biochemical, Caulobacter crescentus
[12] = biological target: EZH2 complex (Homo sapiens, UniProt Q15910); test: Selectivity assay, EZH2 complex; format: biochemical; settings: compound 10 μM, 3H-SAM 1 μM
Chain of EZH2 complex (Q15910 whole entry): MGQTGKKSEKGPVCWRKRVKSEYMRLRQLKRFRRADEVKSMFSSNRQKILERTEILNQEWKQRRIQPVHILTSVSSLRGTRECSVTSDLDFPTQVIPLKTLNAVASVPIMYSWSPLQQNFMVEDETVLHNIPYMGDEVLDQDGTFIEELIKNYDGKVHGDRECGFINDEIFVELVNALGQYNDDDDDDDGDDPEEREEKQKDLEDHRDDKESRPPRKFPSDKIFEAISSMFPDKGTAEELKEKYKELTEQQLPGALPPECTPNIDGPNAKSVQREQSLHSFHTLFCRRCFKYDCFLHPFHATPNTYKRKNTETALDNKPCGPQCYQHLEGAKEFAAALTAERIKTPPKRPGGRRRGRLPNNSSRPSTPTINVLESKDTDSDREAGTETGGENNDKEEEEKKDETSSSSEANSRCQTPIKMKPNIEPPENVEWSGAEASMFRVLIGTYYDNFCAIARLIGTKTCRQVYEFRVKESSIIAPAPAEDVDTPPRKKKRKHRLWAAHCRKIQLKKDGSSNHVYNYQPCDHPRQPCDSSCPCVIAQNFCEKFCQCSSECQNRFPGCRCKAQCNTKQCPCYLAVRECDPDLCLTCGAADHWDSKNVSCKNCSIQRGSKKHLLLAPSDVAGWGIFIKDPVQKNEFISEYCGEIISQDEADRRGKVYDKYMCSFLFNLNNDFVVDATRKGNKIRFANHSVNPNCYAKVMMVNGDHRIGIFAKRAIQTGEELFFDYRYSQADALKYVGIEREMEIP
Chain of EZH2 complex (O75530 whole entry partner): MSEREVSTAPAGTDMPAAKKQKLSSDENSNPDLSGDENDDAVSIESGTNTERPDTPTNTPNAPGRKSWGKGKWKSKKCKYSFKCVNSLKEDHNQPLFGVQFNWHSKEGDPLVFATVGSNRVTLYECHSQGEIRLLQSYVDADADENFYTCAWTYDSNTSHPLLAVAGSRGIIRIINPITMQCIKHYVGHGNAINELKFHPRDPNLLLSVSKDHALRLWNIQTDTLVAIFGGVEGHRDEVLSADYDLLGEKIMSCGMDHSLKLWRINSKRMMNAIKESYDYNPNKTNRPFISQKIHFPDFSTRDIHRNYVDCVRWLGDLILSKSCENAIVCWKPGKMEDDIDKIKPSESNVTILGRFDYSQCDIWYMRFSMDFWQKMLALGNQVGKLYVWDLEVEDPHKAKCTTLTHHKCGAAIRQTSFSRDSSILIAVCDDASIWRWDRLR
Chain of EZH2 complex (Q15022 whole entry partner): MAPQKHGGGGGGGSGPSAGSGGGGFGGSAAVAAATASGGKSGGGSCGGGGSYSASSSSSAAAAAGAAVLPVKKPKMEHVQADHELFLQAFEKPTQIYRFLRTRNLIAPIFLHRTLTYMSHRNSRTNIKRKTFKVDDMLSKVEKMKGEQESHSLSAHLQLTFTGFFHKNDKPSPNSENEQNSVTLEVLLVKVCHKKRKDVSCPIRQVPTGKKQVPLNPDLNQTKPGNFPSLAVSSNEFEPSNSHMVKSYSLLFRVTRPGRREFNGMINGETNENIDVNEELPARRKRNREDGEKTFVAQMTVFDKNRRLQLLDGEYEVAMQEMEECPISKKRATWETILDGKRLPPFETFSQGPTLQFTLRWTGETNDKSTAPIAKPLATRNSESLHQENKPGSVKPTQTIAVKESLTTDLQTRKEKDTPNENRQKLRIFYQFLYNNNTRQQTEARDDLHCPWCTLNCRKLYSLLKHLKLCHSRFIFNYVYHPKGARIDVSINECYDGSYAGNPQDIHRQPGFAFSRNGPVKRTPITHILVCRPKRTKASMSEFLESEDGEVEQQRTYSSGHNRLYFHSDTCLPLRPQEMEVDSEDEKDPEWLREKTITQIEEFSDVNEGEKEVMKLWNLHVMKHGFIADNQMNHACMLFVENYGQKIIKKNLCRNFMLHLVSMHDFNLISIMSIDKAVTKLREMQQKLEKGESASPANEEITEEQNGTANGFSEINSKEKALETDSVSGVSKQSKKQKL
Chain of EZH2 complex (Q09028 whole entry partner): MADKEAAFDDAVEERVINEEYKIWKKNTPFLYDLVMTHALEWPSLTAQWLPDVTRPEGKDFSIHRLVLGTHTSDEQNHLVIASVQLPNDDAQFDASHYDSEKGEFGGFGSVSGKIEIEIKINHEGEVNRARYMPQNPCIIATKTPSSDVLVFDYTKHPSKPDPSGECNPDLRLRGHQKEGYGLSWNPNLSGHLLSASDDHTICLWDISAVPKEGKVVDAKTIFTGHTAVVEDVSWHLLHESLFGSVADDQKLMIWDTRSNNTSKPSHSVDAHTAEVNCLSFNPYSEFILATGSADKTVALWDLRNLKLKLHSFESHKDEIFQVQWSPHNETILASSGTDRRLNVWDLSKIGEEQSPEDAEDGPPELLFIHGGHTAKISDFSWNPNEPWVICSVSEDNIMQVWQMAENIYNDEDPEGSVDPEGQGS
Chain of EZH2 complex (Q6ZN18 whole entry partner): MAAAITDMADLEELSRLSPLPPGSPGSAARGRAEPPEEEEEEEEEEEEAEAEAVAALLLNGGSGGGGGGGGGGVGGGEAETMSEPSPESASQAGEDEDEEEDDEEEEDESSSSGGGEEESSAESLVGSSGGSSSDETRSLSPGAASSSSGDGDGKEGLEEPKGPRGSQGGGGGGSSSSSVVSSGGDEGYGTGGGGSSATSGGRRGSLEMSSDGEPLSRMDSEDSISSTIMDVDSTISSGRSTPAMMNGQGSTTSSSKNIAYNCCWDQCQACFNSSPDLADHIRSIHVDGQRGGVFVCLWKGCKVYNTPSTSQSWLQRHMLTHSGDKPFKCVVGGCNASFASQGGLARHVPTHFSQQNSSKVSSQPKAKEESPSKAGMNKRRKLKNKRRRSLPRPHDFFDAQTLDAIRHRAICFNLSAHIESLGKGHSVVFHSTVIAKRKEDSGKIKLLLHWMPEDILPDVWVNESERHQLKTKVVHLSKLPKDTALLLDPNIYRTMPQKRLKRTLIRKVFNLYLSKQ

[13] = biological target: T4, A1 adenosine receptor (A1AR) (Homo sapiens, UniProt P30542); test: A1AR agonist radioligand binding assay; settings: compound 10 μM, [3H]CCPA 1 nM, transfected CHO cell membranes
T4 sequence (P30542 1-326): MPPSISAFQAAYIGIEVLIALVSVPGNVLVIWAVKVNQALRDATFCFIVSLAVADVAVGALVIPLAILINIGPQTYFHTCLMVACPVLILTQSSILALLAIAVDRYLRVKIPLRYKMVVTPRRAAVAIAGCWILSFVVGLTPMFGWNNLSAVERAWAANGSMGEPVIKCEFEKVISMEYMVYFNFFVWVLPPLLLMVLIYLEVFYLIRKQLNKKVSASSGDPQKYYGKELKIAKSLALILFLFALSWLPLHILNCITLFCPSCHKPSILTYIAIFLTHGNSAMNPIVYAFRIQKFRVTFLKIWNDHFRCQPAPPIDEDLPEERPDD

[14] = biological target: T5, Dam (Escherichia coli, UniProt P0AEE8); format: biochemical
T5 sequence (P0AEE8 1-278): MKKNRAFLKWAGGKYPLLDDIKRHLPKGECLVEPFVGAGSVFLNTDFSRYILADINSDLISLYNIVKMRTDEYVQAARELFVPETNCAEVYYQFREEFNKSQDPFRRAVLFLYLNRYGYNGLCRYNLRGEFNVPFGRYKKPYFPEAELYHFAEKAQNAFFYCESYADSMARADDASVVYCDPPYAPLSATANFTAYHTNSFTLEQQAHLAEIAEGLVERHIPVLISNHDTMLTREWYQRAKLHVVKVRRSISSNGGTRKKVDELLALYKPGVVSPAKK

Chain of MettL5-Trm112 (Q9NRN9 whole entry): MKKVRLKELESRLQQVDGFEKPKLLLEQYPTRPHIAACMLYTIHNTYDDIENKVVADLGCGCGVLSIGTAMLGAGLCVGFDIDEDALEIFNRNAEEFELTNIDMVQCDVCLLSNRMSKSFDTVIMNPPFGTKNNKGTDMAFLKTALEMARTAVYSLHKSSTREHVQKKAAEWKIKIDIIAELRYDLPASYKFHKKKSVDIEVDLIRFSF
Chain of MettL5-Trm112 (Q9UI30 whole entry partner): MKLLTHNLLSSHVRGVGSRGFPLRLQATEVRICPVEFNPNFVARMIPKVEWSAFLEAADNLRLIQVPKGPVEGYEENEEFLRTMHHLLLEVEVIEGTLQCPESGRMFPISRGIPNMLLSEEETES
Chain of PRMT1 (Q99873 whole entry): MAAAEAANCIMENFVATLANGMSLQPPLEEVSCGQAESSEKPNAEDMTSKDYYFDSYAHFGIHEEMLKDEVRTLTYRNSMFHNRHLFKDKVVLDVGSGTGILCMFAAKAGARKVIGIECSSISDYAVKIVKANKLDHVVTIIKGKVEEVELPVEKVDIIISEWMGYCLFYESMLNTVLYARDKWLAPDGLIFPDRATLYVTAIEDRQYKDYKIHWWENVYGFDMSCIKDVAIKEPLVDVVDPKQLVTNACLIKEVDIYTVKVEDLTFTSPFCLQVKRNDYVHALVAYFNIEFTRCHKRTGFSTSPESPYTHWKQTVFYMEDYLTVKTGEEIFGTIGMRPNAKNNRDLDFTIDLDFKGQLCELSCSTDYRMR

CC(C)(C)OC(=O)N1CCC(CCNc2ncnc3c2ncn3[C@@H]2O[C@H](CO)[C@@H](O)[C@H]2O)CC1 [Compound 38, tert-Butyl-4-(2-((9-((2R,3R,4S,5R)-3,4-dihydroxy-5-(hydroxymethyl)tetrahydrofuran-2-yl)-9H-purin-6-yl)amino)ethyl)piperidine-1-carboxylate]
inhibition of MettL5-Trm112 [1]: none of them showed any significant inhibition
inhibition of PRMT1 [2]: none of them showed any significant inhibition
KD improved, fold [3]: ~8 ×
inhibition of DOT1L [4]: none of them showed any significant inhibition
inhibition of MettL3-MettL14 [5]: none of them showed any significant inhibition
inhibition of MettL16 [6]: none of them showed any significant inhibition
inhibition of DNMT1 [7]: none of them showed any significant inhibition
inhibition of Dnmt3a-Dnmt3L [8]: none of them showed any significant inhibition
inhibition of PCIF1 [9]: none of them showed any significant inhibition
inhibition of G9a [10]: none of them showed any significant inhibition
inhibition of CcrM [11]: none of them showed any significant inhibition
inhibition of EZH2 complex [12]: none of them showed any significant inhibition
inhibition of control radioligand specific binding, A1AR [13]: minimal inhibition of specific binding
inhibition of Dam [14]: none of them showed any significant inhibition
